Measured values as given in US20130143236A1, “METHOD FOR DETERMINING SENSITIVITY OF TUMOR CELLS TO DASATINIB AND COMPUTER PROGRAM” (priority 2011, published 2013).

System: tyrosine kinase in the measurement sample (cell membrane fraction of breast cancer cell lines)
Experiment: Tyrosine kinase activity of cell membrane fraction in presence/absence of tyrosine kinase inhibitor (Poly-Glu4-Tyr substrate, ELISA chemiluminescence)
Format: biochemical
Details: 25 μM kinase inhibitor, 25 μM ATP, activity with inhibitor / without
Method: 500 μl of NP40(−) solubilized buffer (20 mM HEPES (pH 7.4)), 10 (w/v) % glycerol, 0.2% protease inhibitor cocktail (#P8340: Sigma-Aldrich (product composition: 104 mM AEBSF, 80 μM aprotinin, 4 mM bestatin, 1.4 mM E-64, 2 mM leupeptin, 1.5 mM Pepstatin A), 50 mM NaF and 200 μM Na3VO4) was added to the cell pellet, followed by stirring for 2 seconds three times using a vortex mixer. After being allowed to stand for 10 minutes, the soluble fraction was removed by centrifugal operation (at 20000×g, for 30 minutes, at 4° C.). The obtained pellet was resuspended in 500 μl of NP40(−) solubilized buffer, the soluble fraction was again removed by centrifugal operation (at 20000×g, for 20 minutes, at 4° C.), and the pellet was washed. The pellet was resuspended by adding 500 μl of NP40(+) solubilized buffer (a buffer prepared by adding NP-40 to the NP40(−) solubilized buffer at a final concentration of 1% to the pellet, pipetting 50 times, and vortexing for 2 seconds three times. After being allowed to stand for 10 minutes, a cell membrane fraction containing a membrane protein was obtained by centrifugal operation (at 20000×g, for 40 minutes, at 4° C.). The protein concentration of the obtained cell membrane fraction was measured by DC protein assay (#500-0116 JA: Bio-Rad). Then, the cell membrane fraction was used as a measurement sample for the following experiments. The measurement sample was frozen with liquid nitrogen and stored at −80° C. before use for the following kinase activity measurement.
NeutrAvidin Coated Plates (HBC) (96-well white plate; #15509: Pierce) were washed three times with 300 μl of TBS-T (20 mM Tris-HCl (pH 7.4)), 150 mM NaCl, 0.1% tween). Then, 100 μl of Poly-Glu4-Tyr biotin conjugate (#12440: Upstate) which had been diluted to 1 μg/ml with TBS (20 mM Tris-HCl (pH 7.4), 150 mM NaCl) was added to the wells. After shaking at 37° C. and 400 rpm for 90 minutes, the wells were washed with 300 μl of TBS-T three times and a measuring plate was obtained.
The measurement sample was diluted with a kinase buffer (20 mM HEPES (pH 7.4), 25 mM MgCl2, 1.25 mM MnCl2, 250 μM Na3VO4, 12.5 (w/v) % glycerol) so as to adjust the protein concentration to 6.25 μg/ml. The diluted measurement sample was transferred to wells of a 96 well V bottom plate. As the tyrosine kinase inhibitors, Src kinase inhibitor I known as an inhibitor of Src (CAS No. 179248-59-0: Calbiochem), PP1 (CAS No. 172889-26-8: Biomol), and Src kinase inhibitor II (Calbiochem) represented by Structural formula (I) below were used. A DMSO solution (inhibitor concentration: 5 mM) containing these inhibitors (Inhibitors 1 to 10 shown in Table 6) was added to the wells at a ratio of 1:160 based on the diluted measurement sample, followed by mixing thereof. As the control, DMSO was added to the diluted measurement sample at the same ratio as the solution of the inhibitor.
After addition of each of the tyrosine kinase inhibitors, a mixed solution of the measurement sample and the inhibitor was allowed to stand at room temperature for 10 minutes. 40 μl of the mixed solution was transferred to wells of the measuring plate and 10 μl of an ATP solution (20 mM HEPES (pH 7.4), […]) as the phosphate group donor was added to the wells. The composition of the solution in the wells is as follows: protein concentration: 5 μg/ml, 20 mM HEPES (pH 7.4), 20 mM MgCl2, 1 mM MnCl2, 200 μM Na3VO4, 10 (w/v) % glycerol, and 25 μM ATP, 25 μM kinase inhibitor.
After shaking the measuring plate at 37° C. and 400 rpm for 60 minutes, the solution was removed from the measuring plate, and the wells were washed with 300 μl of TBS-T three times. 100 μl of Starting Block T20 (TBS) (#37543: Pierce) as a blocking solution was added to the wells, followed by blocking at 37° C. and 400 rpm for 10 minutes. The blocking solution was removed from the measuring plate. […]

[1] = AU565 membrane fraction (dasatinib-insensitive cell line)
[2] = BT-20 membrane fraction (dasatinib-sensitive cell line)
[3] = BT-474 membrane fraction (dasatinib-insensitive cell line)
[4] = BT-549 membrane fraction (dasatinib-insensitive cell line)
[5] = HCC1419 membrane fraction (dasatinib-insensitive cell line)
[6] = HCC1428 membrane fraction (dasatinib-insensitive cell line)
[7] = HCC1806 membrane fraction (dasatinib-sensitive cell line)
[8] = HCC1954 membrane fraction (dasatinib-sensitive cell line)
[9] = HS578T membrane fraction (dasatinib-sensitive cell line)
[10] = MCF7 membrane fraction (dasatinib-insensitive cell line)
[11] = MDA-MB-157 membrane fraction (dasatinib-sensitive cell line)
[12] = MDA-MB-231 membrane fraction (dasatinib-sensitive cell line)
[13] = MDA-MB-435S membrane fraction (dasatinib-insensitive cell line)
[14] = MDA-MB-436 membrane fraction (dasatinib-insensitive cell line)
[15] = MDA-MB-453 membrane fraction (dasatinib-insensitive cell line)
[16] = MDA-MB-468 membrane fraction (dasatinib-insensitive cell line)
[17] = SK-BR-3 membrane fraction (dasatinib-insensitive cell line)
[18] = ZR-75-1 membrane fraction (dasatinib-insensitive cell line)
[19] = ZR-75-30 membrane fraction (dasatinib-insensitive cell line)

| Compound | RA (relative activity value) [1] | RA (relative activity value) [2] | RA (relative activity value) [3] | RA (relative activity value) [4] | RA (relative activity value) [5] | RA (relative activity value) [6] | RA (relative activity value) [7] | RA (relative activity value) [8] | RA (relative activity value) [9] | RA (relative activity value) [10] | RA (relative activity value) [11] | RA (relative activity value) [12] | RA (relative activity value) [13] | RA (relative activity value) [14] | RA (relative activity value) [15] | RA (relative activity value) [16] | RA (relative activity value) [17] | RA (relative activity value) [18] | RA (relative activity value) [19] |
| --- | --- | --- | --- | --- | --- | --- | --- | --- | --- | --- | --- | --- | --- | --- | --- | --- | --- | --- | --- |
| Cc1ccc(-c2nn(C(C)(C)C)c3ncnc(N)c23)cc1 [PP1, 1-(1,1-dimethylethyl)-1-(4-methylphenyl)-1H-pyrazolo-[3,4-d]-pyrimidine-4-amine] | 0.302 | 0.309 | 0.496 | 0.193 | 0.446 | 0.451 | 0.160 | 0.292 | 0.194 | 0.295 | 0.173 | 0.134 | 0.313 | 0.403 | 0.448 | 0.322 | 0.260 | 0.314 | 0.507 |
| COc1cc2ncnc(Nc3ccc(Oc4ccccc4)cc3)c2cc1OC [Src kinase inhibitor I, 4-(4′-phenoxylanilino)-6,7-dimethoxyquinazoline] | 0.632 | 0.434 | 0.624 | 0.394 | 0.637 | 0.563 | 0.329 | 0.535 | 0.418 | 0.508 | 0.397 | 0.364 | 0.551 | 0.551 | 0.837 | 0.190 | 0.567 | 0.442 | 0.627 |
| COc1ccc2c(c1)cc(C)c1nnc(SCC(=O)Nc3cccc(C(C)=O)c3)n12 [Src kinase inhibitor II] | 0.731 | 0.668 | 0.620 | 0.528 | 0.615 | 0.720 | 0.476 | 0.644 | 0.709 | 0.307 | 0.715 | 0.426 | 0.500 | 0.514 | 0.549 | 0.523 | 0.414 | 0.697 | 0.596 |
